# How the values were obtained:
# Assay type in all cases: cell-based
# [1] = test system: L. donovani HU3 strain in mouse peritoneal macrophages; experiment: Assay for inhibition of parasitemia of Leishmania donovani in mouse macrophages (SYBR Green nuclei count, high-content imaging); details: Leishmania donovani, Peritoneal macrophage, L. donovani in mouse peritoneal macrophages; read-out: L. donovani in Mouse Macrophages EC50
# Summary of the method: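 Parasite numbers were counted from SYBR Green-stained nuclei imaged by high-content microscopy after paraformaldehyde fixation and Triton permeabilization. Before this, compound was applied for 5 days at 37° C to BALB/c peritoneal macrophages (2×10^4/well) that had been exposed 24 h to 4×10^5 L. donovani HU3 amastigotes harvested from infected mouse spleens.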
# [2] = test system: Leishmania donovani axenic amastigote; experiment: In vitro assay for growth inhibition of Leishmania donovani axenic amastigote (Cell TiterGlo luminescence); details: Leishmania donovani, L. donovani axenic amastigotes in vitro; read-out: L. donovani amastigotes EC50
# Summary of the method: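 Compound-treated wells received 9600 axenic amastigotes in RPMI 1640-based medium at pH 5.5 (37 °C, 5% CO2). Growth measured as ATP luminescence (CellTiter-Glo) after 2-day incubation; DMSO and reference compounds served as controls.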
# [3] = test system: Trypanosoma cruzi amastigotes cultured in 3T3 fibroblast cells; experiment: Assay for growth inhibition of kinetoplastid parasite Trypanosoma cruzi (beta-galactosidase Tulahuen strain, CPRG readout); details: Trypanosoma cruzi, Fibroblast, T. cruzi amastigotes in 3T3 fibroblast cells; read-out: Buckner infectious T. cruzi EC50
# Summary of the method: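 3T3 fibroblasts (1,000 cells/well) plated overnight, treated with compound in DMSO, then infected with 10,000 Lac-Z-expressing Tulahuen trypomastigotes. After 6 days, 0.6 mM CPRG with 0.6% NP-40 added for 2 h at room temperature; absorbance gives relative intracellular amastigote numbers. Benznidazole and nifurtimox serve as positive controls.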
# [4] = test system: Trypanosoma brucei brucei (Lister 427) strain; experiment: Assay for growth inhibition against Trypanosoma brucei brucei (Cell TiterGlo ATP luminescence); details: Trypanosoma brucei, T. brucei brucei (Lister 427); read-out: T. Brucei (HAT) EC50
# Summary of the method: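 Growth read-out is cellular ATP by CellTiter-Glo luminescence, measured 30 min after reagent addition, following 2-day incubation at 37 °C in CO2. Parasites (10,000/mL, HMI-9 plus 10% FBS and 10% serum plus) faced 10 threefold dilutions in duplicate; IC50 taken as 50% growth inhibition versus untreated.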
SMILES,EC50 [1] [nM],EC50 [2] [nM],EC50 [3] [nM],EC50 [4] [nM]
"O=C(Nc1ccc(F)c(-n2cc3cc(-c4ccccn4)cnc3n2)c1)N1CCCC1 [Compound 336, N-{4-fluoro-3-[5-(pyridin-2-yl)-2H-pyrazolo[3,4-b]pyridin-2-yl]phenyl}pyrrolidine-1-carboxamide]",4,2,1,1
"O=C(Nc1ccc(F)c(-n2cc3cc(N4CC(F)(F)C4)cnc3n2)c1)N1CCCC1 [Compound 338, N-{3-[5-(3,3-difluoroazetidin-1-yl)-2H-pyrazolo[3,4-b]pyridin-2-yl]-4-fluorophenyl}pyrrolidine-1-carboxamide]",2,5,3,3
"O=C(Nc1ccnc(-n2cc3cc(Br)cnc3n2)c1)N1CC[C@@H](F)C1 [Compound 340, (3R)-N-(2-{5-bromo-2H-pyrazolo[3,4-b]pyridin-2-yl}pyridin-4-yl)-3-fluoropyrrolidine-1-carboxamide]",87,225,61,35
"O=C(Nc1ccnc(-n2cc3cc(-c4ccccn4)cnc3n2)c1)N1CCC1 [Compound 341, N-{2-[5-(pyridin-2-yl)-2H-pyrazolo[3,4-b]pyridin-2-yl]pyridin-4-yl}azetidine-1-carboxamide]",33,6,10,9
"O=C(Nc1ccnc(-n2cc3cc(-c4ccccn4)cnc3n2)c1)N1CC(F)C1 [Compound 342, 3-fluoro-N-{2-[5-(pyridin-2-yl)-2H-pyrazolo[3,4-b]pyridin-2-yl]pyridin-4-yl}azetidine-1-carboxamide]",24,7,17,10
"O=C(Nc1cccc(-n2cc3cc(N4CC(F)(F)C4)cnc3n2)c1)N1CCC1 [Compound 343, N-{3-[5-(3,3-difluoroazetidin-1-yl)-2H-pyrazolo[3,4-b]pyridin-2-yl]phenyl}azetidine-1-carboxamide]",32,10,14,9
"O=C(Nc1cccc(-n2cc3cc(-c4ccccn4)cnc3n2)c1)N1CCC1 [Compound 344, N-{3-[5-(pyridin-2-yl)-2H-pyrazolo[3,4-b]pyridin-2-yl]phenyl}azetidine-1-carboxamide]",5,2,3,1
"O=C(Nc1ccc(F)c(-n2cc3cc(-c4ccccn4)cnc3n2)c1)c1cnccn1 [Compound 345, N-{4-fluoro-3-[5-(pyridin-2-yl)-2H-pyrazolo[3,4-b]pyridin-2-yl]phenyl}pyrazine-2-carboxamide]",33,11,4,5
"O=C(Nc1ccc(F)c(-n2cc3cc(-c4ccccn4)cnc3n2)c1)C1CC12CC2 (stereo not shown) [Compound 346, N-{4-fluoro-3-[5-(pyridin-2-yl)-2H-pyrazolo[3,4-b]pyridin-2-yl]phenyl}spiro[2.2]pentane-1-carboxamide]",155,239,34,41
"CC1(C)C=C(C(=O)Nc2ccc(F)c(-n3cc4cc(-c5ccccn5)cnc4n3)c2)C1 [Compound 347, N-{4-fluoro-3-[5-(pyridin-2-yl)-2H-pyrazolo[3,4-b]pyridin-2-yl]phenyl}-3,3-dimethylcyclobut-1-ene-1-carboxamide]",15,7,2,7
"N#CC1(C(=O)Nc2ccc(F)c(-n3cc4cc(-c5ccccn5)cnc4n3)c2)CC1 [Compound 348, 1-cyano-N-{4-fluoro-3-[5-(pyridin-2-yl)-2H-pyrazolo[3,4-b]pyridin-2-yl]phenyl}cyclopropane-1-carboxamide]",963,347,142,112
"Cc1cccnc1-c1cnc2nn(-c3cc(NC(=O)C4=CC(C)(C)C4)ccc3F)cc2c1 [Compound 350, N-{4-fluoro-3-[5-(3-methylpyridin-2-yl)-2H-pyrazolo[3,4-b]pyridin-2-yl]phenyl}-3,3-dimethylcyclobut-1-ene-1-carboxamide]",58,16,16,28
"Cc1nc(C)c(C(=O)Nc2ccc(F)c(-n3cc4cc(C(C)C)cnc4n3)c2)o1 [Compound 351, N-(4-fluoro-3-(5-isopropyl-2H-pyrazolo[3,4-b]pyridin-2-yl)phenyl)-2,4-dimethyloxazole-5-carboxamide]",24,49,15,31

# — patent publication US11384078B2, “5,6-fused-bicyclic compounds and compositions for the treatment of parasitic diseases” (NOVARTIS AG, priority 2017, dated 2022)
